# Reference: ChEMBL document CHEMBL6182863, “Discovery of novel rigid STING PROTAC degraders as potential therapeutics for acute kidney injury” (Eur J Med Chem, 2025)
# Activity calls are given as the source filed them. The calls are words filed in the database; no cut-off is given here.
# What was measured:
# [1] = target: Transcription factor p65 (Homo sapiens) (UniProt Q04206); assay: Inhibition of NF-kappaB P65 nuclear translocation in human HK-2 cells at 0.25 to 5 uM by DAPI staining based fluorescence microscopic analysis; format: cell-based; details: dose 0.25-5 µM
# [2] = target: T1, Protein cereblon/Stimulator of interferon genes protein (Homo sapiens, UniProt Q96SW2+Q86WV6); assay: PROTAC activity at CRBN/STING in human THP-1 cells assessed as induction of STING degradation at 5 uM measured after 24 hrs by Western blotting analysis relative to control; format: cell-based
# [3] = target: T1, Protein cereblon/Stimulator of interferon genes protein; assay: PROTAC activity at CRBN/STING in human THP-1 cells assessed as induction of STING degradation by Western blotting analysis; format: cell-based; details: time 1-48 hrs
# [4] = system: HK-2; assay: Inhibition of STING downstream signal pathway in cisplatin stimulated human HK-2 cells assessed as reduction in p-IRF3 level by […] analysis; format: cell-based; details: dose 1.25-5 µM
# [5] = system: HK-2; assay: Inhibition of STING downstream signal pathway in cisplatin stimulated human HK-2 cells assessed as reduction in P-P65 level by […] analysis; format: cell-based; details: dose 1.25-5 µM
# [6] = system: THP-1; assay: PROTAC activity at CRBN/STAT3 in human THP-1 cells assessed as induction of STAT3 degradation at 1.25 to 20 uM by Western blotting analysis; format: cell-based; details: dose 1.25-20 µM
# [7] = Acute toxicity in C57BL/6J mouse assessed as change in body weight at 43 mg/kg; format: organism-based; details: in vivo
# [8] = Acute toxicity in C57BL/6J mouse assessed as change in body weight at 125 mg/kg; format: organism-based; details: in vivo
# [9] = Acute toxicity in C57BL/6J mouse assessed as change in body weight at 179 mg/kg; format: organism-based; details: in vivo
# [10] = Acute toxicity in C57BL/6J mouse assessed as survival at 30 to 179 mg/kg; format: organism-based; details: in vivo, dose 30-179 mg/kg
# [11] = Acute toxicity in C57BL/6J mouse; details: in vivo, dose 30 mg/kg
# [12] = Metabolic stability in human liver microsomes assessed as half life; format: ADME, Microsome
# [13] = Apparent volume of distribution in male Sprague-Dawley rat at 2 mg/kg, iv measured after 12 hrs by LC-MS/MS analysis; format: ADME, organism-based; details: in vivo, read-out: Vz
# [14] = Toxicity in cisplatin-induced acute kidney injury C57BL/6J mouse model assessed as morphological abnormality in heart at 25 to 50 mg/kg, ip by H and E staining based analysis; format: organism-based; details: in vivo, dose 25-50 mg/kg
# [15] = system: Mus musculus; assay: Renoprotective activity against cisplatin-induced C57BL/6J mouse acute kidney injury model assessed as reduction in BUN level at 25 to 50 mg/kg, ip measured after 72 hrs; format: functional, organism-based; details: dose 25-50 mg/kg
# [16] = system: Mus musculus; assay: Renoprotective activity against cisplatin-induced C57BL/6J mouse acute kidney injury model assessed as decrease in body weight at 25 to 50 mg/kg, ip measured after 72 hrs; format: functional, organism-based; details: dose 25-50 mg/kg
# [17] = system: Mus musculus; assay: Renoprotective activity against cisplatin-induced C57BL/6J mouse acute kidney injury model assessed as decrease in fecal occult blood at 25 to 50 mg/kg, ip measured after 72 hrs; format: functional, organism-based; details: dose 25-50 mg/kg
# [18] = target: T2, Protein cereblon/Stimulator of interferon genes protein (Mus musculus) (UniProt Q3TBT3+Q8C7D2); assay: In vivo inhibition of STING/TBK1/NF-kappaB signaling in C57BL/6J mouse assessed as decrease in STING protein level in kidney at 25 to 50 mg/kg, ip measured after 72 hrs by Western blotting analysis; format: functional, organism-based; details: dose 25-50 mg/kg
# [19] = target: T2, Protein cereblon/Stimulator of interferon genes protein (Mus musculus); assay: In vivo inhibition of STING/TBK1/NF-kappaB signaling in C57BL/6J mouse assessed as decrease in P-P65 protein level in kidney at 25 to 50 mg/kg, ip measured after 72 hrs by Western blotting analysis; format: functional, organism-based; details: dose 25-50 mg/kg
# [20] = target: T2, Protein cereblon/Stimulator of interferon genes protein (Mus musculus); assay: In vivo inhibition of STING/TBK1/NF-kappaB signaling in C57BL/6J mouse assessed as decrease in serum CXCL10 level at 25 to 50 mg/kg, ip measured after 72 hrs by ELISA; format: functional, organism-based; details: dose 25-50 mg/kg
# [21] = target: T2, Protein cereblon/Stimulator of interferon genes protein (Mus musculus); assay: In vivo inhibition of STING/TBK1/NF-kappaB signaling in C57BL/6J mouse assessed as decrease in serum IL-6 level at 25 to 50 mg/kg, ip measured after 72 hrs by ELISA; format: functional, organism-based; details: dose 25-50 mg/kg
# [22] = system: THP-1; assay: PROTAC activity at CRBN/AMPK in human THP-1 cells assessed as induction of AMPK degradation at 1.25 to 20 uM measured after 24 hrs by Western blotting analysis; format: cell-based; details: dose 1.25-20 µM
# [23] = system: THP-1; assay: PROTAC activity at CRBN/ERK in human THP-1 cells assessed as induction of ERK degradation at 1.25 to 20 uM measured after 24 hrs by Western blotting analysis; format: cell-based; details: dose 1.25-20 µM
# T2 sequence (Q3TBT3 whole entry, looked up): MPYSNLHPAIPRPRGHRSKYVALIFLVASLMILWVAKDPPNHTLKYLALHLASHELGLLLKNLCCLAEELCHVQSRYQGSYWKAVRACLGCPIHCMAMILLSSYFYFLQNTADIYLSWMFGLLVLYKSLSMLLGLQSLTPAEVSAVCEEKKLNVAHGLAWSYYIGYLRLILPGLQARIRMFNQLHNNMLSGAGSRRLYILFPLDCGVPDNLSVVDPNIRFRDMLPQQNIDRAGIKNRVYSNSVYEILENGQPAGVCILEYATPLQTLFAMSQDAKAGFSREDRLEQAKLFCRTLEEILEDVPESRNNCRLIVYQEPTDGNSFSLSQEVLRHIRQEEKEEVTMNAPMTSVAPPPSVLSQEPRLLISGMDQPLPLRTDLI
# T2 sequence (Q8C7D2 whole entry, looked up): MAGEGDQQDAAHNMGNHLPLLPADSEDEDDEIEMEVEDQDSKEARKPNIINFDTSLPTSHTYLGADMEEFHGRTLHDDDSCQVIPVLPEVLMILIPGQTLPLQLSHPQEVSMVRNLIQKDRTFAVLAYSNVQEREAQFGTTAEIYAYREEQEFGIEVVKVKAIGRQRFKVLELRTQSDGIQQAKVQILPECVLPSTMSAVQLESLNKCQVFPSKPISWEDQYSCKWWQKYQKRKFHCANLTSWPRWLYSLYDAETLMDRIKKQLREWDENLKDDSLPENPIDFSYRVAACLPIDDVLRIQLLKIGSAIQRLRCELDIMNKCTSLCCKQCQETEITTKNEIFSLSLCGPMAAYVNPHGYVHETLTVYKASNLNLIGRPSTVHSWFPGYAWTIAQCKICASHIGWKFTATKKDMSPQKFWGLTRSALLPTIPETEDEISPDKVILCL
# T1 sequence (Q86WV6 whole entry, looked up): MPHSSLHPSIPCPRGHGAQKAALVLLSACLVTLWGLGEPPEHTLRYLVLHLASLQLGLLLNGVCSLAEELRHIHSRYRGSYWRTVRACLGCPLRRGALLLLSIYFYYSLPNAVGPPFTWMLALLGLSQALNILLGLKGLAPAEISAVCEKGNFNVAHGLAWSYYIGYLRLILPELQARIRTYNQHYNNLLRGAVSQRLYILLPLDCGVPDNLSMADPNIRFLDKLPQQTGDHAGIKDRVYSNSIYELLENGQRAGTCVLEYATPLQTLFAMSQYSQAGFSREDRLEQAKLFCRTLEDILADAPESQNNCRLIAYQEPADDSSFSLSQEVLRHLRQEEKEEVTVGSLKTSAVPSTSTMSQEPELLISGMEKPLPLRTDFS
# T1 sequence (Q96SW2 whole entry, looked up): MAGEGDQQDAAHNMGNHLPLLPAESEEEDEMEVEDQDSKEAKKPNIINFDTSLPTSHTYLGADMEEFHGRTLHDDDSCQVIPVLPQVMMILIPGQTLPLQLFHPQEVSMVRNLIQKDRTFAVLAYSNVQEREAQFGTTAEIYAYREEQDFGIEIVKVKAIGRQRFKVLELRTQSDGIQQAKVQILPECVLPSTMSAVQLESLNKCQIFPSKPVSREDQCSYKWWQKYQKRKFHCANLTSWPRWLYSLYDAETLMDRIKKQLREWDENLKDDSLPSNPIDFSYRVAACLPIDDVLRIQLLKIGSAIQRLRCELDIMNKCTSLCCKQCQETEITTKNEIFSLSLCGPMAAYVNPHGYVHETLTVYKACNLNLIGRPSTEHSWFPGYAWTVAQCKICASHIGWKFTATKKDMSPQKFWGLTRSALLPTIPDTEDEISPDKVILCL
# Transcription factor p65 (Homo sapiens), sequence (Q04206 whole entry): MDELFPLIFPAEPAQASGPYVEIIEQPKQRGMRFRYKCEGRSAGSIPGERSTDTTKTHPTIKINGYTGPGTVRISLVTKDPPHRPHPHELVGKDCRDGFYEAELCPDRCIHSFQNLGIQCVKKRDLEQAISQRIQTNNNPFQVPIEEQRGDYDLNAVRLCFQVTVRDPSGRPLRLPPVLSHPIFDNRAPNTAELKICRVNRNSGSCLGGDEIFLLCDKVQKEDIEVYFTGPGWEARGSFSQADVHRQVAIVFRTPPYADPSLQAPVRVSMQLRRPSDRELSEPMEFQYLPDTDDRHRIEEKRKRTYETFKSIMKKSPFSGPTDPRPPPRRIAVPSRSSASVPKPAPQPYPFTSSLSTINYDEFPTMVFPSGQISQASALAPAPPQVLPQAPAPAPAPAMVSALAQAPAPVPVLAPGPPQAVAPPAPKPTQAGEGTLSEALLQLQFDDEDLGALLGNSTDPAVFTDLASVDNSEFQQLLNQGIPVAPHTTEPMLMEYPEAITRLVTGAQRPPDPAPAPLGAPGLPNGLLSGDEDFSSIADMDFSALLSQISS
smiles,measurement,setting,value
O=C(/C=C/C(=O)N1CCN(CC2CCN(c3cccc4c3C(=O)N(C3CCC(=O)NC3=O)C4=O)C2)CC1)Nc1ccc(NC(=O)c2ccc([N+](=O)[O-])o2)cc1 (stereo not drawn),inhibition,[1],Active
same,Activity,[2],90.6%
same,Activity,[3],Time-dependent-effect
same,inhibition,[4],Dose-dependent-effect
same,inhibition,[5],Dose-dependent-effect
same,Activity,[6],inactive
same,Activity,[7],24.2 g
same,Activity,[8],23.4 g
same,Activity,[9],22.8 g
same,survival,[10],100%
same,LD50,[11],> 179 mg/kg
same,half-life,[12],20.1 min
same,Vd,[13],3.9 L/kg
same,Activity,[14],Non-toxic
same,Activity,[15],Active
same,Activity,[16],Active
same,Activity,[17],Active
same,inhibition,[18],Active
same,inhibition,[19],Active
same,inhibition,[20],Active
same,inhibition,[21],Active
same,Activity,[22],inactive
same,Activity,[23],inactive
